Measured values reported in patent publication US10166218B2, “3-(1H-indol-2-yl)-1H-pyrazolo[3,4-C]pyridines and therapeutic uses thereof” (Samumed, LLC, priority 2015, dated 2019).

How the values were obtained:
Type in all cases: cell-based
IL-6 (THP-1 cells) = test: Inhibition of IL-6 in LPS-stimulated THP-1 human monocyte cells (HTRF); settings: inhibition of IL-6 in LPS-stimulated THP-1 cells, HTRF, 10-point dose-response starting from 10 μM
Procedure: Human monocyte cell line (THP-1 cells; Catalog # TIB-202, ATCC, Manassas, Va.) were cultured in Roswell Park Memorial Institute (RPMI) 1640 Medium (Catalog #21870-100, Buffalo, N.Y.) with 1% L-glutamine, 1% HEPES, 1% Sodium Pyruvate, 2% Sodium Bicarbonate supplemented with 100 units/mL penicillin, 50 μg/mL streptomycin, 2-mercaptoethanol (0.05 mM) [basal medium] and 10% fetal bovine serum (Catalog #16140089, Life Technologies, Carlsbad, Calif.) at 37° C. and 5% CO2.
THP-1 cells were cultured in basal media with 1% FBS for 24 hours before the start of the assay. Each compound was dissolved in DMSO as a 10 mM stock and used to prepare compound source plates. Serial dilution (1:3, 10-point dose-response curves starting from 10 μM) and compound transfer was performed using the ECHO 550 (Labcyte, Sunnyvale, Calif.) into 384-well white low volume assay plates (Greiner Bio-One) with appropriate DMSO backfill for a final DMSO concentration of 0.1%. THP-1 cells were plated at 5000 cells/well in the 384-well plates and incubated at 37° C. for 2 h. 500 ng/mL of LPS was added after 2 hours and cells were incubated for another 22 hours at 37° C. Plates were spun in a centrifuge for 1 minute at […] and a mixture of anti-IL6 XL665, and anti-IL6 Cryptate diluted in reconstitution buffer (Cisbio Inc.) was added to each well. Following incubation for 3 hrs at room temperature, Homogeneous Time-Resolved Fluorescence (HTRF) was measured using the Envision (Perkin Elmer) at 665 nm and […]. The ratio of fluorescence at 665 nm to 620 nm was used as a readout for IL6 quantification. All samples were processed in duplicate. Readings were normalized to DMSO treated cells and normalized activities were utilized for EC50 calculations using the dose-response log (inhibitor) vs. response-variable slope (four parameters) nonlinear regression feature available in GraphPad Prism 5.0 (or Dotmatics). For EC50 of >10 μM, the percent inhibition at 10 μM is provided.

[1] = tested on: Wnt activity (Sp5-Luc reporter, TCF/LEF binding sites) in SW480 colon carcinoma cells; test: Screening assay for Wnt activity: Sp5-Luc reporter gene assay in stably transduced SW480 cells; settings: Homo sapiens, overnight incubation
Excerpt: The screening assay for Wnt activity is described as follows. Reporter cell lines can be generated by stably transducing cancer cell lines (e.g., colon cancer) or primary cells (e.g., IEC-6 intestinal cells) with a lentiviral construct that includes a Wnt-responsive promoter driving expression of the firefly luciferase gene.
SW480 colon carcinoma cells were transduced with a lentiviral vector expressing luciferase with a human Sp5 promoter consisting of a sequence of eight TCF/LEF binding sites. SW480 cells stably expressing the Sp5-Luc reporter gene and a hygromycin resistance gene were selected by treatment with 150 μg/mL of hygromycin for 7 days. These stably transduced SW480 cells were expanded in cell culture and used for all further screening activities. Each compound was dissolved in DMSO as a 10 mM stock and used to prepare compound source plates. Serial dilution (1:3, 10-point dose-response curves starting from 10 μM) and compound transfer was performed using the ECHO 550 (Labcyte, Sunnyvale, Calif.) into 384-well white solid bottom assay plates (Greiner Bio-One) with appropriate DMSO backfill for a final DMSO concentration of 0.1%. For Sp5-Luc reporter gene assays, the cells were plated at 4,000 cells/well in 384-well plates with medium containing 1% fetal bovine serum and incubated overnight at 37° C. and 5% CO2. Following incubation, 20 μl of BrightGlo luminescence reagent (Promega) was added to each well of the 384-well assay plates. The plates were placed on an orbital shaker for 2 min and then luminescence was quantified using the Envision (Perkin Elmer) plate reader. Readings were normalized to DMSO only treated cells, and normalized activities were utilized for EC50 calculations using the dose-response log (inhibitor) vs. response-variable slope (four parameters) nonlinear regression feature available in GraphPad Prism 5.0 (or Dotmatics). For EC50 of >10 μM, the percent inhibition at 10 μM is provided.

[2] = tested on: primary human fibroblasts derived from IPF patients (LL29 cells) treated with TGF-β1; α-smooth muscle actin (αSMA); test: Inhibition of the fibrotic process: αSMA staining in TGF-β1 treated primary human fibroblasts from IPF patients (LL29 cells); settings: Fibroblast, 96 h, TGF-β1 20 ng/mL, 4 days, % cells positive for αSMA
Excerpt: Representative compounds were screened using primary human fibroblasts (derived from IPF patients) treated with TGF-β1 to determine their ability to inhibit the fibrotic process.
Primary human fibroblasts derived from IPF patients (LL29 cells) [^1Xiaoqiu Liu, et. al., “Fibrotic Lung Fibroblasts Show Blunted Inhibition by cAMP Due to Deficient cAMP Response Element-Binding Protein Phosphorylation”, Journal of Pharmacology and Experimental Therapeutics (2005), 315(2), 678-687; ^2Watts, K. L., et. al., “RhoA signaling modulates cyclin D1 expression in human lung fibroblasts; implications for idiopathic pulmonary fibrosis”, Respiratory Research (2006), 7(1), 88] were obtained from American Type Culture Collection (ATCC) and expanded in F12 medium supplemented with 15% Fetal Bovine Serum and Penicillin/Streptomycin.
Each compound was dissolved in DMSO as a 10 mM stock and used to prepare compound source plates. Serial dilution (1:2, 11-point dose-response curves from 10 μM to 1.87 nM) and compound transfer was performed using the ECHO 550 (Labcyte, Sunnyvale, Calif.) into 384-well clear bottom assay plates (Greiner Bio-One) with appropriate DMSO backfill for a final DMSO concentration of 0.1%. LL29 cells are plated at 1,500 cells/well in 80 μL/well F12 medium supplemented with 1% Fetal Bovine Serum. One hour after addition of the cells, TGF-β1 (Peprotech; 20 ng/mL) was added to the plates to induce fibrosis (ref. 1 and 2 above). Wells treated with TGF-β1 and containing DMSO were used as controls. Cells were incubated at 37° C. and 5% CO2 for 4 days. Following incubation for 4 days, SYTOX green nucleic acid stain (Life Technologies [Thermo Fisher Scientific]) was added to the wells at a final concentration of 1 μM and incubated at room temperature for 30 min. Cells were then fixed using 4% formaldehyde (Electron Microscopy Sciences), washed 3 times with PBS followed by blocking and permeabilization using 3% Bovine Serum Albumin (BSA; Sigma) and 0.3% Triton X-100 (Sigma) in PBS. Cells were then stained with antibody specific to α-smooth muscle actin (αSMA; Abcam) (ref. 1 and 2 above) in 3% Bovine Serum Albumin (BSA; Sigma) and 0.3% Triton X-100 (Sigma) in PBS, and incubated overnight at 4° C. Cells were then washed 3 times with PBS, followed by incubation with Alexa Flor-647 conjugated secondary antibody (Life Technologies [Thermo Fisher Scientific]) and DAPI at room temperature for 1 hour. Cells were then washed 3 times with PBS and plates were sealed for imaging. αSMA staining was imaged by excitation at 630 nm and emission at 665 nm and quantified using the Compartmental Analysis program on the CellInsight CX5 (Thermo Scientific). Dead or apoptotic cells were excluded from analysis based on positive SYTOX green staining. % of total cells positive for αSMA were counted in each well and normalized to the average of 11 wells treated with TGF-β1 on the same plate using Dotmatics' Studies Software. The normalized averages (fold change over untreated) of 3 replicate wells for each compound concentration were used to create dose-responses curves and EC50 values were calculated using non-linear regression curve fit in the Dotmatics' Studies Software. For EC50 of >10 μM, the percent inhibition at 10 μM is provided.

SW480 colon cancer cells = test: Cell viability assay (CellTiter-Blue) in SW480 colon cancer cells; settings: Homo sapiens, 96 h, four days, CellTiter-Blue
Procedure: Representative compounds were screened using the following assay procedure to assess the effect on cell viability as described below.
Each compound was dissolved in DMSO as a 10 mM stock and used to prepare compound source plates. Serial dilution (1:3, 8-point dose-response curves from 10 μM to 0.0045 μM) and compound transfer was performed using the ECHO 550 (Labcyte, Sunnyvale, Calif.) into 96-well clear bottom, black-walled plates (Corning-Costar).
Approximately 2×10^3 SW480 colon cancer cells were seeded into each well and allowed to incubate in the presence or absence of compound for four days at 37° C./5% CO2. Eight replicates of DMSO-treated cells served as controls and cells treated with compound were performed in duplicate.
After incubation, 20 μL of CellTiter-Blue (Promega) was added to each well allowed to incubate for approximately 3 hours. This reagent was a buffered solution which contains resazurin, metabolically active cells were able to reduce rezarurin (blue) into resorufin (pink) which was highly fluorescent. This measured fluorescence was used as a readout for cell viability.
After incubation, the plates were read at Ex 560 nm Em 590 nm (Cytation 3, BioTek). Dose-response curves were generated and EC50 concentration values were calculated using non-linear regression curve fit in the GraphPad Prism (San Diego, Calif.) or Dotmatics' Studies Software (Bishops Stortford, UK). For EC50 of >10 μM, the percent inhibition at 10 μM is provided.

| SMILES | EC50 (IL-6 (THP-1 cells)) | EC50 [1] | EC50 [2] | EC50 (SW480 colon cancer cells) |
| --- | --- | --- | --- | --- |
| CC(C)Nc1cncc(-c2cc3c(-c4cc5c(-c6ccncc6)cccc5[nH]4)n[nH]c3cn2)c1 [Compound 124, N-Isopropyl-5-(3-(4-(pyridin-4-yl)-1H-indol-2-yl)-1H-pyrazolo[3,4-c]pyridin-5-yl)pyridin-3-amine] | 3.35 µM | 0.108 µM | 0.138 µM | 5.83 µM |
| c1ccc(-c2cc3c(-c4cc5c(-c6ccncc6)cccc5[nH]4)n[nH]c3cn2)nc1 [Compound 140, 5-(Pyridin-2-yl)-3-(4-(pyridin-4-yl)-1H-indol-2-yl)-1H-pyrazolo[3,4-c]pyridine] | 0.481 µM | 0.485 µM | 0.319 µM | 0.37 µM |
| O=C(Cc1ccccc1)Nc1cncc(-c2cc3c(-c4cc5c(-c6ccccn6)cccc5[nH]4)n[nH]c3cn2)c1 [Compound 150, 2-Phenyl-N-(5-(3-(4-(pyridin-2-yl)-1H-indol-2-yl)-1H-pyrazolo[3,4-c]pyridin-5-yl)pyridin-3-yl)acetamide] | 2.02 µM | 1.42 µM | 0.531 µM | 2.97 µM |
| O=C(Nc1cncc(-c2cc3c(-c4cc5c(-c6ccccn6)cccc5[nH]4)n[nH]c3cn2)c1)C1CCCCC1 [Compound 163, N-(5-(3-(4-(Pyridin-2-yl)-1H-indol-2-yl)-1H-pyrazolo[3,4-c]pyridin-5-yl)pyridin-3-yl)cyclohexanecarboxamide] | 2.49 µM | 0.55 µM | 0.081 µM | 0.938 µM |
| CC(C)CC(=O)Nc1cncc(-c2cc3c(-c4cc5c(N6CCCCC6)cccc5[nH]4)n[nH]c3cn2)c1 [Compound 170, 3-Methyl-N-(5-(3-(4-(piperidin-1-yl)-1H-indol-2-yl)-1H-pyrazolo[3,4-c]pyridin-5-yl)pyridin-3-yl)butanamide] | 4.29 µM | 1.33 µM | 0.902 µM | 4.65 µM |
| CCNCc1cncc(-c2cc3c(-c4cc5c(N6CCCCC6)cccc5[nH]4)n[nH]c3cn2)c1 [Compound 174, N-((5-(3-(4-(Piperidin-1-yl)-1H-indol-2-yl)-1H-pyrazolo[3,4-c]pyridin-5-yl)pyridin-3-yl)methyl)ethanamine] | 0.167 µM | 0.553 µM | 0.65 µM | 1.08 µM |
| CC(C)(C)C(=O)Nc1cncc(-c2cc3c(-c4cc5c(N6CCCCC6)cccc5[nH]4)n[nH]c3cn2)c1 [Compound 176, N-(5-(3-(4-(Piperidin-1-yl)-1H-indol-2-yl)-1H-pyrazolo[3,4-c]pyridin-5-yl)pyridin-3-yl)pivalamide] | 8.89 µM | 3.04 µM | 0.7 µM | 7.14 µM |
| CC(C)Nc1cncc(-c2cc3c(-c4cc5c(N6CCCCC6)cccc5[nH]4)n[nH]c3cn2)c1 [Compound 180, N-Isopropyl-5-(3-(4-(piperidin-1-yl)-1H-indol-2-yl)-1H-pyrazolo[3,4-c]pyridin-5-yl)pyridin-3-amine] | 1 µM | 0.362 µM | 0.267 µM | 1.73 µM |
| c1ccc(-c2cc3c(-c4cc5c(N6CCCCC6)cccc5[nH]4)n[nH]c3cn2)nc1 [Compound 196, 3-(4-(Piperidin-1-yl)-1H-indol-2-yl)-5-(pyridin-2-yl)-1H-pyrazolo[3,4-c]pyridine] | 8.78 µM | 3.42 µM | 1.16 µM | 6.06 µM |
| CN1CCN(c2cccc3[nH]c(-c4n[nH]c5cnc(-c6cncc(N)c6)cc45)cc23)CC1 [Compound 227, 5-(3-(4-(4-Methylpiperazin-1-yl)-H-indol-2-yl)-1H-pyrazolo[3,4-c]pyridin-5-yl)pyridin-3-amine] | 1.08 µM | 1.16 µM | 1.91 µM | 2.61 µM |
| CN1CCN(c2cccc3[nH]c(-c4n[nH]c5cnc(-c6cncc(NC(=O)Cc7ccccc7)c6)cc45)cc23)CC1 [Compound 234, N-(5-(3-(4-(4-Methylpiperazin-1-yl)-H-indol-2-yl)-1H-pyrazolo[3,4-c]pyridin-5-yl)pyridin-3-yl)-2-phenylacetamide] | 1.94 µM | 1.04 µM | 1.25 µM | 3.13 µM |
